biological target: Rhesus PDE2A3 (Macaca mulatta, UniProt B3VTJ2); test: PDE2 fluorescence polarization (IMAP FP) inhibition assay, rhesus enzyme; format: biochemical, rhesus macaque; conditions: Rhesus PDE2, Lab A; read-out: Rhesus PDE2 Ki (nM) - Lab A
Protocol: The activity of the compounds in accordance with the present invention as PDE2 inhibitors may be readily determined using a fluorescence polarization (FP) methodology (Huang, W., et al., J. Biomol Screen, 2002, 7: 215).
In a typical experiment the PDE2 inhibitory activity of the compounds of the present invention was determined in accordance with the following experimental method. Rhesus PDE2A3 was amplified from rhesus macaque brain cDNA (Biochain Institute, Hayward, Calif.) using primers based on human PDE2A sequence (accession NM_002599.3) where the forward primer containing a Kozak consensus was 5′-[…]-3′ and the reverse primer was 5′-[…]-3′. Amplification with Easy-A High-Fidelity PCR cloning enzyme (Stratagene, La Jolla, Calif.) was 95° C. for 2 minutes followed by thirty three cycles of 95° C. for 40 seconds, 52° C. for 30 seconds, and 72° C. for 2 minutes 48 seconds. Final extension was 72° C. for 7 minutes. The PCR product was TA cloned into pcDNA3.3-TOPO (Invitrogen, Carlsbad, Calif.) according to standard protocol. A consensus sequence was developed from multiple clones and then deposited into GenBank (EU812167). AD293 cells (Stratagene, La Jolla, Calif.) with 70-80% confluency were transiently transfected with rhesus PDE2A3/pcDNA3.3-TOPO using Lipofectamine 2000 according to manufacturer specifications (Invitrogen, Carlsbad, Calif.). Cells were harvested 48 hours post-transfection and lysed by sonication (setting 3, 10×5 sec pulses) in a buffer containing 20 mM HEPES pH 7.4, 1 mM EDTA and Complete Protease Inhibitor Cocktail Tablets (Roche, Indianapolis, Ind.). Lysate was collected by centrifugation at 75,000×g for 20 minutes at 4° C. and supernatant utilized for evaluation of PDE2 activity. The fluorescence polarization assay for cyclic nucleotide phosphodiesterases was performed using an IMAP® FP kit supplied by Molecular Devices, Sunnyvale, Calif. (product # R8139). […] Assays were performed at room temperature in 384-well microtiter plates with an incubation volume of 20.2 μL. Solutions of test compounds were prepared in DMSO and serially diluted with DMSO to yield 8 μL of each of 10 solutions differing by 3-fold in concentration, at 32 serial dilutions per plate. […] 0% of inhibition is determined by using DMSO (1% final concentrations).
A Labcyte Echo 555 (Labcyte, Sunnyvale, Calif.) is used to dispense 200 nL from each well of the titration plate to the 384 well assay plate. Ten microliters of a solution of enzyme (1/2000 final dilution from aliquots; sufficient to produce 20% substrate conversion) was added to the assay plate. Next 10 uL of a separate solution of the substrate FAM-labeled cAMP (50 nM final concentration product # R7506 from Molecular Devices) and the activator cGMP (1 uM final concentration), prepared in the assay buffer (10 mM Tris HCl, pH 7.2, 10 mM MgCl2, 0.05% NaN3 0.01% Tween-20, and 1 mM DTT) was added to the assay plate and shaken to mix. The reaction is allowed to proceed at room temperature for 60 minutes. A binding solution is then made from the kit components, comprised of 80% Solution A, 20% Solution B and binding reagent at a volume of 1/600 the total binding solution. The enzymatic reaction is stopped by addition of 60 μL of the binding solution to each well of the assay plates and the plates are sealed and shaken for 30 seconds. The plate was incubated at room temperature for at least one hour prior to determining the fluorescence polarization (FP). The parallel and perpendicular fluorescence of each well of the plate was measured using a Tecan Genios Pro plate reader (Tecan, Switzerland) or Perkin Elmer EnVision™ plate reader (Waltham, Mass.). Fluorescence polarization (mP) was calculated from the parallel (S) and perpendicular (P) fluorescence of each sample well and the analogous values for the median control well, containing only substrate (So and Po), using the following equation: Polarization (mP)=1000*(S/So−P/Po)/(S/So+P/Po).

Chain of Rhesus PDE2A3 (B3VTJ2 1-941): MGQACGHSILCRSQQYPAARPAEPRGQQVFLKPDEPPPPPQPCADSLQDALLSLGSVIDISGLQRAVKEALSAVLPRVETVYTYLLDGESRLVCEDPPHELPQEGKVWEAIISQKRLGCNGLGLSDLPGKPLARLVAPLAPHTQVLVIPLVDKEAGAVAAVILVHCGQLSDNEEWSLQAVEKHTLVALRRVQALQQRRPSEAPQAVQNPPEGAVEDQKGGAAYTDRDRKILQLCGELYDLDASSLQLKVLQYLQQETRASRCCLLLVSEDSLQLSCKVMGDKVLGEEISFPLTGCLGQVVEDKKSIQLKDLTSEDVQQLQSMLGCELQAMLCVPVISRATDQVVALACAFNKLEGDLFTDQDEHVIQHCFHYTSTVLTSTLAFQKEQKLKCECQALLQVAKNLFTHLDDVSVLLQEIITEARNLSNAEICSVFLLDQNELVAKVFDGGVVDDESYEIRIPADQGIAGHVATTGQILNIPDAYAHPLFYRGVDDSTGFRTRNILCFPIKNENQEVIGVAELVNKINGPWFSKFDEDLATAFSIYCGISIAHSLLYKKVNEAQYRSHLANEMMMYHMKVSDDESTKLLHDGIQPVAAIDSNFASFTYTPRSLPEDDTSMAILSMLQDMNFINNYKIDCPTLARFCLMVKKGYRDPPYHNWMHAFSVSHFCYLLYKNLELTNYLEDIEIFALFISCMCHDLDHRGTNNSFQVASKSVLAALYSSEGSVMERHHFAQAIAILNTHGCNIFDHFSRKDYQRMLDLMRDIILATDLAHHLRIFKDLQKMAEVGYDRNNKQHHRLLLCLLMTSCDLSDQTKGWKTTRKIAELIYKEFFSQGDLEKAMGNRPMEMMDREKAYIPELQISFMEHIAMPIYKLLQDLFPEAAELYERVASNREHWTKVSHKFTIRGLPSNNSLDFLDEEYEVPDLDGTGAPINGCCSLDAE

Ki [nM] | Compound
2380 | Cc1nc(C(=O)NC(C)c2ccc(C(C)C)cc2)cc(=O)[nH]1 (single isomer, unassigned) [Example 306, (S)- or (R)-2-methyl-N-{1-[4-(1-methylethyl)phenyl]ethyl}-6-oxo-1,6-dihydropyrimidine-4-carboxamide]
2500 | Cc1nc(C(=O)NC(C)c2ccc(-c3ccccc3)cc2)cc(=O)[nH]1 (single isomer, unassigned) [Example 308, (S)- or (R)-N-(1-biphenyl-4-ylethyl)-2-methyl-6-oxo-1,6-dihydropyrimidine-4-carboxamide]
5650 | Cc1nc(C(=O)NC(C)c2ccc(C(C)(C)C)cc2)cc(=O)[nH]1 (single isomer, unassigned) [Example 310, (S)- or (R)-N-[1-(4-tert-butylphenyl)ethyl]-2-methyl-6-oxo-1,6-dihydropyrimidine-4-carboxamide]
9120 | Cc1nc(C(=O)NC(CO)c2ccc(C(F)(F)F)cc2)cc(=O)[nH]1 (single isomer, unassigned) [Example 311, (S)- or (R)-N-{2-hydroxy-1-[4-(trifluoromethyl)phenyl]ethyl}-2-methyl-6-oxo-1,6-dihydropyrimidine-4-carboxamide]
4740 | COc1ccc2cc(C(C)NC(=O)c3cc(=O)[nH]c(C)n3)ccc2c1 (single isomer, unassigned) [Example 314, (S)- or (R)-N-[1-(6-methoxynaphthalen-2-yl)ethyl]-2-methyl-6-oxo-1,6-dihydropyrimidine-4-carboxamide]

same assay, conditions: Rhesus PDE2, Lab B; read-out: Rhesus PDE2 Ki (nM) - Lab B

Ki [nM] | Compound
~1220 | Cc1nc(C(=O)NC(C)(c2ccc(S(F)(F)(F)(F)F)cc2)C(C)C)cc(=O)[nH]1 (single isomer, unassigned) [Example 662, (S)- or (R)-N-{1,2-dimethyl-1-[4-(pentafluoro-λ^6-sulfanyl)phenyl]propyl}-2-methyl-6-oxo-1,6-dihydropyrimidine-4-carboxamide]
473 | Cc1nc(C(=O)NC(C)c2ccc(C(C)(C)C(F)(F)F)cc2)cc(=O)[nH]1 (single isomer, unassigned) [Example 695, (R)- or (S)-2-methyl-6-oxo-N-(1-(4-(1,1,1-trifluoro-2-methylpropan-2-yl)phenyl)ethyl)-1,6-dihydropyrimidine-4-carboxamide]
> 2970 | Cc1nc(C(=O)NC(c2ccc(SC(F)(F)F)c(F)c2)C2(C)CC2)cc(=O)[nH]1 (single isomer, unassigned) [Example 703, (S)- or (R)-N-((3-fluoro-4-((trifluoromethyl)thio)phenyl)(1-methylcyclopropyl)methyl)-2-methyl-6-oxo-1,6-dihydropyrimidine-4-carboxamide]
1070 | CC1(C(NC(=O)c2cc(=O)[nH]c(C3CC3)n2)c2ccc(SC(F)(F)F)c(F)c2)CC1 (single isomer, unassigned) [Example 705, (S)- or (R)-2-cyclopropyl-N-((3-fluoro-4-((trifluoromethyl)thio)phenyl)(1-methylcyclopropyl)methyl)-6-oxo-1,6-dihydropyrimidine-4-carboxamide]
> 2970 | CC1(C(NC(=O)c2cc(=O)[nH]c(-c3ccccc3)n2)c2ccc(SC(F)(F)F)c(F)c2)CC1 (single isomer, unassigned) [Example 706, (S)- or (R)-N-((3-fluoro-4-((trifluoromethyl)thio)phenyl)(1-methylcyclopropyl)methyl)-6-oxo-2-phenyl-1,6-dihydropyrimidine-4-carboxamide]
~2120 | CC1(C(NC(=O)c2cc(=O)[nH]c(-c3ncccn3)n2)c2ccc(SC(F)(F)F)c(F)c2)CC1 (single isomer, unassigned) [Example 708, (S)- or (R)-N-((3-fluoro-4-((trifluoromethyl)thio)phenyl)(1-methylcyclopropyl)methyl)-6-oxo-1,6-dihydro-[2,2′-bipyrimidine-4-carboxamide]

Source: US9815796B2 (Merck Sharp & Dohme Corp., priority 2013, dated 2017)
